# Source: publication PMC8614999, “A Comparative Analysis of Punicalagin Interaction with PDIA1 and PDIA3 by Biochemical and Computational Approaches” (Biomedicines, 2021)
# Legend:
# PDIA1 [1] = biological target: T1, PDIA1 (Homo sapiens, UniProt P07237); experiment: Tryptophan fluorescence quenching titration, PDIA1; type: binding; conditions: for Stern–Volmer constant KSV: 0.1 × 10^−6 M protein; for Stern–Volmer constant KSV / Kd: pH 7.4, 25 °C; for Kd: fluorescence quenching
# T1 construct: The pOLR130 plasmid encoding mature human PDIA1 with an N-terminal His6x-tag; His6 (N); made in house; host or cells: E. coli BL21
# T1 sequence (P07237 18-508): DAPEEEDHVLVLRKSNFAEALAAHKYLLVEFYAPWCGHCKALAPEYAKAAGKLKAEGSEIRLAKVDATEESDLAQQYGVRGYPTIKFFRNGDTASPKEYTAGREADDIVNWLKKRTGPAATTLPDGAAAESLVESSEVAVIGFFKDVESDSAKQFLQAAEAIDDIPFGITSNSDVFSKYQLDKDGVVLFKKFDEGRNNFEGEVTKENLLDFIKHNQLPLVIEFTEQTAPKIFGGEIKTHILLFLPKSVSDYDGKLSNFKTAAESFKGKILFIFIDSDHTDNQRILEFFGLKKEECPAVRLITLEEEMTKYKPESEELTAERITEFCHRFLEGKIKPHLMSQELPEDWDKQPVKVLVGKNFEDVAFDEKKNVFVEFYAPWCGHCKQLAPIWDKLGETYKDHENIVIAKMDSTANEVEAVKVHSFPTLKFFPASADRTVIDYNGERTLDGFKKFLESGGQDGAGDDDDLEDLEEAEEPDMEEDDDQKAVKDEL
# Method: (§1) Protein-ligand interactions were evaluated according to the fluorescence quenching titration method using a SPEX-FluoroMax spectrofluorometer (Horiba Scientific, Piscataway, NJ, USA). Emission spectra were recorded from 300 to 400 nm with an excitation wavelength set at 290 nm. The emission slit width was fixed to provide a 2 nm bandpass for all experiments. Scan speed was set at 120 nm min^−1. A total of 50 µM PDIA1 and PDIA3 stock solutions were reduced by adding DTT 5 mM. […] The titrations were performed by stepwise additions, at 5 min time intervals, of punicalagin solution from 0 to 4 µM (punicalagin 0.2 mM in PBS pH 7.4 freshly prepared from a 5 mM stock solution in water). Blank spectra for each experiment (no protein added) were performed in parallel for background determination. The emission spectrum of the protein was recorded three times, and the average reading values were then used for quenching analyses as already described.
# (§2) Quenching of intrinsic tryptophan fluorescence at 338 nm has been analyzed by Stern–Volmer equation (Fo/F = 1 + KSV[L]), where F and F0 are the fluorescence intensity, respectively with or without ligand (L), and KSV is the Stern–Volmer constant value. Based on obtained results, punicalagin is able to quench the fluorescence of both proteins with a Stern–Volmer constant always greater than 1.0 × 10^4 M^−1 (Figure 2B and Table 1). […] In order to further characterize the binding process, data were analyzed using the equation described by Bi et al. and the reiterative calculation process described by Sun et al., providing an estimation of the Kd values (Table 1). Punicalagin binds both PDIAs in the micro-molar order of magnitude, showing a slightly greater affinity toward PDIA3, which tryptophan residues appear more quenchable upon punicalagin binding.
# PDIA3 [2] = biological target: T2, PDIA3 (Homo sapiens, UniProt P30101); experiment: Tryptophan fluorescence quenching titration, PDIA3; type: binding; conditions: for Stern–Volmer constant KSV: 0.1 × 10^−6 M protein; for Stern–Volmer constant KSV / Kd: pH 7.4, 25 °C; for Kd: fluorescence quenching
# T2 construct: Mature human recombinant PDIA3 protein was expressed and purified; made in house
# T2 sequence (P30101 25-505): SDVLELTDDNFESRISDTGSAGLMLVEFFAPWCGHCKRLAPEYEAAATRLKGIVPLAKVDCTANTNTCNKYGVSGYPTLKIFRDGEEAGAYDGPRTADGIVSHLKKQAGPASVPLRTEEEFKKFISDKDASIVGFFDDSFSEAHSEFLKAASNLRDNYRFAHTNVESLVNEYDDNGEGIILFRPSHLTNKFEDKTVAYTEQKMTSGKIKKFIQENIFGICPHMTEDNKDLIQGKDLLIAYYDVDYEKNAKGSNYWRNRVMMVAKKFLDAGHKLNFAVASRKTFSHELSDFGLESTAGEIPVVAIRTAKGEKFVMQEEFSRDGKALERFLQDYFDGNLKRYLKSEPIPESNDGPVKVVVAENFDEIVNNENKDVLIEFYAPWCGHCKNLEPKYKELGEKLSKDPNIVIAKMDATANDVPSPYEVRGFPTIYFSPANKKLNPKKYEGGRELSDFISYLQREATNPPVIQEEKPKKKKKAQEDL
# Method: as §1, §2
# PDIA1 [3] = biological target: T1, PDIA1; experiment: Isothermal titration calorimetry, PDIA1; type: binding; conditions: ITC, PDIA1 reduced form, 25 °C
# Method: (§3) Punicalagin interaction with PDIA3 and PDIA1 was investigated using isothermal titration calorimetry (ITC) with a MicroCal ITC200 (Malvern Instruments, Malvern, UK). […] Protein solution was loaded in the sample cell (0.2 mL), and the syringe was filled with punicalagin 250 µM dissolved in the same buffer. A total of 20 ligand aliquots (the first aliquot of 0.4 µL in 0.8 s and the other 19 aliquots of 2 µL in 4 s) were gradually added to the sample cell at intervals of 200 s each other to allow baseline recovery. The syringe stirring speed was set at 800 rpm. Protein and punicalagin solutions were thoroughly degassed on the MicroCal’s Thermovac machine before loading to avoid air bubble formation during the titration. Data analyses were performed by Origin software version 8.0 (OriginLab, Northampton, MA, USA). The heat of dilution for the ligand was determined in parallel, and this value was subtracted from the integrated data before curve fitting. The integration of the area under each heat burst curve was determined. All injection heats as a function of the molar ratio were plotted and analyzed using the one set of sites model to provide the dissociation constants.
# PDIA3 [4] = biological target: T2, PDIA3; experiment: Isothermal titration calorimetry, PDIA3; type: binding; conditions: ITC, PDIA3 reduced form, 25 °C
# Method: as §3
# PDIA1 [5] = biological target: T1, PDIA1; experiment: Differential scanning calorimetry thermal denaturation, PDIA1; type: binding; conditions: reduced PDIA1 5 µM, punicalagin 25 µM
# Method: (§4) Protein stability in solution was assayed by differential scanning calorimetry (DSC) with a Microcal VP-DSC (Microcal, Northampton, MA, USA) testing both proteins. […] The reference cell was filled with protein-free buffer. A heating rate of 60 °C h^−1 was set, and the measurement cell worked under an excess pressure of 0.2 kPa to avoid air bubble formation during the heating. The heat absorption during the denaturation process was measured by subtracting the instrumental baseline from the sample trace and normalizing for protein concentration. To test the effect of the ligand on protein stability, analysis was also performed on both proteins in the presence of punicalagin (25 µM final concentration). The melting points (Tm, temperature at which excess heat capacity reaches a maximum) were directly observable from the thermogram. Nevertheless, data deconvolution using the Origin software provided by MicroCal was necessary to obtain Tm values.
# PDIA3 [6] = biological target: T2, PDIA3; experiment: Differential scanning calorimetry thermal denaturation, PDIA3; type: binding; conditions: reduced PDIA3 5 µM, punicalagin 25 µM
# Method: as §4
# PDIA1 [7] = biological target: T1, PDIA1; experiment: Disulfide reductase activity with di-E-GSSG, PDIA1; type: biochemical; conditions: PDIA1, di-E-GSSG substrate
# Method: (§5) PDIAs disulfide reductase activity was monitored by using di-eosin glutathione disulfide (di-E-GSSG) as a fluorogenic substrate of PDIAs. Di-E-GSSG was synthesized by the reaction of eosin isothiocyanate with oxidized glutathione (GSSG) according to the method of Raturi and Mutus with some modifications. Protein activity was evaluated by monitoring the emission fluorescence increase (λem = 545 nm and λex = 525 nm), and the effect of punicalagin (concentration ranging from 0.2 to 50 µM) was tested. Inhibition constants were extrapolated by GraphPad Prism 8.0 software (GraphPad Software, San Diego, CA, USA), plotting the obtained data as logarithm dose-response curves.
# (§6) Punicalagin effects have also been studied on the enzymatic activity of PDIA3 and PDIA1. It is well known that both proteins catalyze oxidoreductase and isomerase reactions involving thiol groups and disulfide bonds. PDIs’ reductase activity was evaluated using di-E-GSSG as fluorogenic substrate and was calculated as the initial velocity in fluorescence increased due to the reduction in the fluorogenic substrate. […] For comparison purposes, the punicalagin inhibitory effect was extended to PDIA1. Results were analyzed as logarithmic dose response, and the half-maximal inhibitory concentrations (IC50) were evaluated (Figure 4).
# PDIA3 [8] = biological target: T2, PDIA3; experiment: Disulfide reductase activity with di-E-GSSG, PDIA3; type: biochemical; conditions: PDIA3, di-E-GSSG substrate
# Method: as §5, §6
# PDIA3 [9] = biological target: T2, PDIA3; parameters: method as in PMID 29425676; conditions: PDIA3 reductase activity, non-competitive inhibitor; cited from earlier work
# [10] = parameters: method as in printed; conditions: background statement, ref not given; cited from earlier work
compound,measurement,setting,value
O=C1O[C@H]2[C@@H]3OC(=O)c4cc(O)c(O)c(O)c4-c4c(O)c(O)c5oc(=O)c6c(c(O)c(O)c7oc(=O)c4c5c76)-c4c(cc(O)c(O)c4O)C(=O)OC[C@H]3OC(O)[C@@H]2OC(=O)c2cc(O)c(O)c(O)c2-c2c1cc(O)c(O)c2O (mixture of isomers) [punicalagin],Quenching constant Kq,"PDIA1 [1]; PDIA1, KSV = Kqτ, τ in the order of 1.0 × 10^−8 s",greater than 1.0 × 10^10 M^1s^−1
same,Stern–Volmer constant (bound stated in text),"PDIA1 [1]; PDIA1, both proteins always greater",greater than 1.0 × 10^4 M^−1
same,Stern–Volmer constant KSV,PDIA1 [1]; PDIA1 not reduced form,183.2 ± 2.7 M^−1 × 10^3
same,Stern–Volmer constant KSV,PDIA1 [1]; PDIA1 reduced form,97.9 ± 2.1 M^−1 × 10^3
same,Kd,PDIA1 [1]; PDIA1 not reduced form,4.9 µM
same,Kd,PDIA1 [1]; PDIA1 reduced form,11.9 µM
same,Quenching constant Kq,"PDIA3 [2]; PDIA3, KSV = Kqτ, τ in the order of 1.0 × 10^−8 s",greater than 1.0 × 10^10 M^1s^−1
same,Stern–Volmer constant (bound stated in text),"PDIA3 [2]; PDIA3, both proteins always greater",greater than 1.0 × 10^4 M^−1
same,Stern–Volmer constant KSV,PDIA3 [2]; PDIA3 not reduced form,240.4 ± 3.6 M^−1 × 10^3
same,Stern–Volmer constant KSV,PDIA3 [2]; PDIA3 reduced form,157.1 ± 1.9 M^−1 × 10^3
same,Kd,PDIA3 [2]; PDIA3 not reduced form,3.9 µM
same,Kd,PDIA3 [2]; PDIA3 reduced form,10 µM
same,Kd,PDIA1 [3],1 ± 0.2 µM
same,TΔS,PDIA1 [3],5.6 ± 0.5 kcal/mol
same,ΔH,PDIA1 [3],-2.7 ± 0.4 kcal/mol
same,Kd,PDIA3 [4],1.2 ± 0.3 µM
same,TΔS,PDIA3 [4],6.8 ± 0.4 kcal/mol
same,ΔH,PDIA3 [4],-1.1 ± 0.2 kcal/mol
same,Tm of first endothermic peak in presence of punicalagin,PDIA1 [5]; protein alone 46.0 °C,42 °C
same,Tm of second endothermic peak in presence of punicalagin,PDIA1 [5]; protein alone 61.0 °C,60 °C
same,Tm of first endothermic peak in presence of punicalagin,PDIA3 [6]; protein alone 44.9 °C,40.4 °C
same,Tm of second endothermic peak in presence of punicalagin,PDIA3 [6]; protein alone 53.9 °C,51.6 °C
same,IC50,PDIA1 [7],6.1 ± 0.6 µM
same,IC50,PDIA3 [8],1.5 ± 0.2 µM
same,Ki,PDIA3 [9],0.39 µM
same,solubility in water,[10],soluble in water
